According to patent US5627191A, “Therapeutic agents” (The Boots Company PLC, priority 1992, dated 1997):
Counter-ions that a name gives are not always drawn.

Legend:
[1] = target: T1, adrenal membrane angiotensin II receptor (Oryctolagus cuniculus, UniProt P34976); test: Test A: binding affinity to the adrenal membrane angiotensin II receptor in vitro; parameters: species or system rabbit (male New Zealand white); settings: rabbit adrenal membranes, 0.05 nM [^125 I]angiotensin II, 60 minutes at 25° C.; read-out: Ki from Test A
T1 construct: Aliquots of rabbit adrenal membranes containing 10-30 μg protein were incubated; from tissue; host or cells: adrenal gland membranes of male New Zealand white rabbits
T1 sequence (P34976 1-359): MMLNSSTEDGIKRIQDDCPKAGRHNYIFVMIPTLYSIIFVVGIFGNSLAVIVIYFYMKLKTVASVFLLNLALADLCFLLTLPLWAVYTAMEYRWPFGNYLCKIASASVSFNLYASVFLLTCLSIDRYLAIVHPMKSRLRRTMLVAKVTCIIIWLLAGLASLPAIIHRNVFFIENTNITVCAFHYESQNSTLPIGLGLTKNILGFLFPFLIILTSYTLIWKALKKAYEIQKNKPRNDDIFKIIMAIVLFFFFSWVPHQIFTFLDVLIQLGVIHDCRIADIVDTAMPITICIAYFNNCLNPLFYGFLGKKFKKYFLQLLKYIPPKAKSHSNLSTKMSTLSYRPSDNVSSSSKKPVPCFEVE
Procedure: In test A the binding affinity of compounds to the adrenal membrane angiotensin II receptor was determined in vitro and in tests B and C the antihypertensive effect of the compounds was measured in vivo. A detailed description of the tests follows. Test A 1) Preparation of Membranes Adrenal glands from male New Zealand white rabbits were homogenised on ice in 20 mM aqueous sodium bicarbonate solution containing 50 μM PMSF (phenylmethanesulphonyl fluoride) (2 ml/g wet weight) using a Polytron (Trademark) homogeniser for 3×15 seconds at setting 8. The homogenate was centrifuged at 900 g for 10 minutes at 4° C. and the pellet was discarded. The supernatant was recentrifuged at 30000 g for 30 minutes at 4° C., and the resulting pellet was resuspended in assay buffer (50 mM Tris-HCl, pH 7.4, containing 1 mM EDTA, 6.5 mM MgCl2, 125 mM NACl, 50 μM PMSF, 5 μg/ml pepstatin and 50 μg/ml each of leupeptin, antipain, aprotinin and chymostatin): 10 ml per g original tissue wet weight. Polyethylene glycol was added (final concentration 30%) as a cryopreservant and the membrane preparation divided into aliquots and stored at -80° C. until required. Protein was determined by a modification of the method of Lowry (Markwell et al, (1978) Anal. Biochem., 87: 206-210). 2) Binding Assay Aliquots of rabbit adrenal membranes containing 10-30 μg protein were incubated with 0.05 nM [^125 I]angiotensin II in the presence or absence of potential angiotensin II antagonists in 1 ml polyamide tubes in a total volume of 200 μI assay buffer. After incubation for 60 minutes am 25° C. the reaction was terminated by the addition of ice-cold assay buffer, and the bound and free radioactivity was separated through Skatron (Trademark) receptor-binding filters, pre-wetted with assay buffer, using a Skatron cell harvester. The filters were washed with ice-cold phosphate buffered saline, dried, and the trapped radioactivity was determined using a gamma counter. Non-specific binding, measured in the presence of 2 μM unlabelled angiotensin II, was subtracted from total binding to obtain specific binding. Radioligand binding curves were analysed using EBDA and LIGAND (Cambridge Biosoft). Values for binding affinity were obtained by nonlinear regression analysis of untransformed data. The activities of the compounds described in the Examples given hereinafter are set out below in Table A, Column 1.

[2] = tested on: Aoki-Okamoto strain of spontaneously hypertensive rat; test: Test B: oral antihypertensive effect, threshold dose; assay type: in vivo; settings: dose giving a reduction of blood pressure of between 9 and 16% after correction, 1.5 and 5.0 hours after dosing; for minimal effective dose: Rattus norvegicus, po, 5 h, read-out: Threshold anti-hypertensive dose from Test B
Procedure: (§1) In test A the binding affinity of compounds to the adrenal membrane angiotensin II receptor was determined in vitro and in tests B and C the antihypertensive effect of the compounds was measured in vivo. A detailed description of the tests follows.
(§2) Female rats, weight range 180-240 g, of the Aoki-Okamoto strain of spontaneously hypertensive rat were used. The rats in groups of four were fasted overnight before administration of the test compound. Blood pressure was determined in the following way. The rats were placed in a cabinet kept at 38° C. with their tails protruding through holes in the cabinet. After 30 minutes in the cabinet blood pressure was measured using an inflatable cuff placed round the base of the mail and arterial pulsations monitored with a pneumatic pulse transducer. […] The pressure in the cuff at which arterial pulsations reappeared was taken as the blood pressure. The rats were removed from the cabinet and each group orally dosed with a given dose of the test compound given as a solution or suspension in 0.25% aqueous carboxymethylcellulose. In addition to the predose reading, blood pressure was measured at 1.5 and 5.0 hours after dosing. The degree of blood pressure reduction sufficient to achieve a significance level of p<0.01 compared to controls was 9% after correction for control changes at appropriate time intervals. Thus, compounds were considered to be active in this test if they produced a reduction of blood pressure after correction of 9% or greater than 9%.
(§3) Threshold antihypertensive doses of compounds of formula I were determined in the following way. Compounds were tested initially at a particular dose level, for example 90 mg/kg.
The activities of the compounds described in the Examples given hereinafter are set out below in Table A, Column 2.

[3] = tested on: Aoki-Okamoto strain of spontaneously hypertensive rat; test: Test C: oral antihypertensive effect after pretreatment with bendrofluazide, threshold dose; assay type: in vivo; settings: pretreated with bendrofluazide 10 mg/kg at 16 hours and 2 hours prior to dose
Procedure: as §1, §2, §3
The procedure of Test B above was carried out subject to the modification of pretreating the rats with bendrofluazide 10 mg/kg (an orally administered diuretic) at 16 hours and 2 hours prior to the dose of the test compound, to ensure activation of the reninangiotensin system.
The activities of the compounds described in the Examples given hereinafter are set out below in Table A, Column 3.

CCCCc1nc(Cl)c(C(=O)O)n1Cc1ccc(-c2ccccc2-c2c(O)c(=O)c2=O)cc1 [Example 29, 2-butyl-4-chloro-1-[2'-(2-hydroxy-3,4-dioxocyclobut-1-en-1-yl)biphenyl-4-ylmethyl]-1H-imidazole-5-carboxylic acid 0.4 hydrochloride]
Ki [1]: 13.7 nM | minimal effective dose [2]: > 3 mg/kg | Threshold anti-hypertensive dose from Test C [3]: 3 mg/kg

CCCCC1=NC2(CCCC2)C(=O)N1Cc1ccc(-c2ccccc2-c2c(O)c(=O)c2=O)cc1 [Example 22, 3-[4'-(2-butyl-5-oxo-2-imidazoline-4-spirocyclopent-1-ylmethyl)biphenyl-2-yl]-4-hydroxycyclobut-3-ene-1,2-dione]
Ki [1]: 3.68 nM | Threshold anti-hypertensive dose from Test C [3]: 30 mg/kg

CCc1nc2c(C)c(S(=O)(=O)N(C)C)c(C)nc2n1Cc1ccc(-c2ccccc2-c2c(O)c(=O)c2=O)cc1 [Example 11, 2-ethyl-3-[2'-(2-hydroxy-3,4-dioxocyclobut-1-en-1-yl)biphenyl-4-ylmethyl]-5,7, N,N-tetramethyl-3H-imidazo[4,5-b]pyridine-6-sulphonamide mono-ethyl acetate solvate]
Ki [1]: 393 nM

CCCc1nc(CC)c(C=O)n1Cc1ccc(-c2ccccc2-c2c(O)c(=O)c2=O)cc1 [Example 15, 4-ethyl-1-[2'-(2-hydroxy-3,4-dioxocyclobut-1-en-1-yl)biphenyl-4-ylmethyl]-2-propyl-1H-imidazole-5-carboxaldehyde]
Ki [1]: 13.5 nM | Threshold anti-hypertensive dose from Test C [3]: 3 mg/kg

CCCCc1nc(Cl)c(/C=C(\Cc2ccccc2)C(=O)O)n1Cc1ccc(-c2c(O)c(=O)c2=O)cc1 [Example 30, (E)-2-benzyl-3-[2-butyl-4-chloro-1-[4-(2-hydroxy-3,4-dioxocyclobut-1-en-1-yl)benzyl]-1H-imidazol-5-yl]propenoic acid]
Ki [1]: 77.9 nM | Threshold anti-hypertensive dose from Test C [3]: ≤ 10 mg/kg

CCc1nc2c(C)cc(C)nc2n1Cc1ccc(-c2ccccc2-c2c(O)c(=O)c2=O)cc1 (single isomer, unassigned) [Example 5, sodium salt of 3-[4'-(2-ethyl-5,7-dimethyl-3H-imidazo[4,5-b]pyrid-3-ylmethyl)biphenyl-2-yl]-4-hydroxycyclobut-3-ene-1,2-dione]
Ki [1]: 1.78 nM | Threshold anti-hypertensive dose from Test B [2]: 1 mg/kg | Threshold anti-hypertensive dose from Test C [3]: 1 mg/kg

CCc1nc2c(C)cc(C)nc2n1Cc1ccc(-c2ccccc2-c2c(N)c(=O)c2=O)cc1 [Example 6, 3-amino-4-[4'-(2-ethyl-5,7-dimethyl-3H-imidazo[4,5-b]pyrid-3-ylmethyl)biphenyl-2-yl]cyclobut-3-ene-1,2-dione]
Ki [1]: 400 nM

CCc1nc2c(C)c(Cl)c(C)nc2n1Cc1ccc(-c2ccccc2-c2c(O)c(=O)c2=O)cc1 [Example 12, 3-[4'-(6-chloro-2-ethyl-5,7-dimethyl-3H-imidazo-[4,5-b]pyrid-3-ylmethyl)biphenyl-2-yl]-4-hydroxy-cyclobut-3-ene-1,2-dione hydrochloride]
Ki [1]: 13.3 nM

CCc1nc2c(C)cc(C)nc2n1Cc1ccc(-c2ccccc2-c2c(O)c(=O)c2=O)cc1 (single isomer, unassigned) [Example 4, 3-[4'-(2-ethyl-5,7-dimethyl-3H-imidazo[4,5-b]pyrid-3-ylmethyl)biphenyl-2-yl]-4-hydroxycyclobut-3-ene-1,2-dione]
Ki [1]: 5 nM | Threshold anti-hypertensive dose from Test B [2]: 0.1 mg/kg | Threshold anti-hypertensive dose from Test C [3]: 0.1 mg/kg

CCCCN(Cc1ccc(-c2ccccc2-c2c(O)c(=O)c2=O)cc1)c1ncncc1C(=O)O [Example 20, 4-[N-butyl-N-[2'-(2-hydroxy-3,4-dioxocyclobut-1-en-1-yl)biphenyl-4-ylmethyl]amino]pyrimidine-5-carboxylicacid 0.6 hydrochloride]
Ki [1]: 81.7 nM | minimal effective dose [2]: 3 mg/kg | Threshold anti-hypertensive dose from Test C [3]: 1 mg/kg

CCc1nc2c(C)cc(C)nc2n1Cc1ccc(-c2ccccc2-c2c(OC(C)C)c(=O)c2=O)cc1 [Example 1, 3-[4'-(2-ethyl-5,7-dimethyl-3H-imidazo[4,5-b]pyrid-3-ylmethyl)biphenyl-2-yl]-4-isopropoxycyclobut-3-ene-1,2-dione]
Ki [1]: 97.6 nM | Threshold anti-hypertensive dose from Test C [3]: 30 mg/kg

CCCc1nc2c(C)cc(C)nc2n1Cc1ccc(-c2ccccc2-c2c(O)c(=O)c2=O)cc1 [Example 8, 3-[4'-(5 7-dimethyl-2-propyl-3H-imidazo[4,5-b]pyrid-3-ylmethyl)biphenyl-2-yl]-4-hydroxycyclobut-3-ene-1,2-dione]
Ki [1]: 3.19 nM | minimal effective dose [2]: 10 mg/kg | Threshold anti-hypertensive dose from Test C [3]: < 10 mg/kg

CCCCc1nc(Cl)c(C=O)n1Cc1ccc(-c2ccccc2-c2c(O)c(=O)c2=O)cc1 [Example 24, 2-butyl-4-chloro-1-[2'-(2-hydroxy-3,4-dioxocyclobut-1-en-1-yl)biphenyl-4-ylmethyl]-1H-imidazole-5-carboxaldehyde]
Ki [1]: 11.1 nM | Threshold anti-hypertensive dose from Test C [3]: 3 mg/kg

CCCc1nc2c(C)cc(C)nc2n1Cc1ccc(-c2ccccc2-c2c(O)c(=O)c2=O)cc1 [Example 9, sodium salt of 3-[4'-(5,7-dimethyl-2-propyl-3H-imidazo[4,5-b]-pyrid-3-ylmethyl)biphenyl-2-yl]-4-hydroxycyclobut-3-ene-1,2-dione]
Ki [1]: 3.71 nM | Threshold anti-hypertensive dose from Test B [2]: 10 mg/kg | Threshold anti-hypertensive dose from Test C [3]: 0.1 mg/kg

CCc1nc2c(C)cc(C)nc2n1Cc1ccc(-c2ccccc2-c2c(OCOC(=O)C(C)(C)C)c(=O)c2=O)cc1 [Example 13, 2-[4'-(2-ethyl-5,7-dimethyl-3H-imidazo[4,5-b]pyrid-3-ylmethyl)biphenyl-2-yl]-3,4-dioxocyclobut-1-en-1-yloxymethyl pivalate]
Ki [1]: 19 nM | minimal effective dose [2]: 10 mg/kg | Threshold anti-hypertensive dose from Test C [3]: < 10 mg/kg

CCCCc1nc(Cl)c(C(=O)OC)n1Cc1ccc(-c2ccccc2-c2c(O)c(=O)c2=O)cc1 [Example 28, methyl 2-butyl-4-chloro-1-[2'-(2-hydroxy-3,4-dioxo-cyclobut-1-en-1-yl)biphenyl-4-ylmethyl]-1H-imidazole-5-carboxylate]
Ki [1]: 27.7 nM | Threshold anti-hypertensive dose from Test C [3]: 10 mg/kg
